Reference: patent US20070128217A1 (priority 2003, published 2007)

Legend:
[1] = tested on: control sera (pooled serum of ten healthy LUMC hospital workers; commercial negative donor pooled serum from the Dutch bloodbank); assay type: binding, human; design: Binding of Control serum LUMC to linear peptides / Binding of Control serum Blood-bank to linear peptides / Binding of Control serum LUMC to looped peptides / Binding of Control Serum Blood-Bank to Looped peptides / Binding of Control serum LUMC to linear peptides of the protein M of SARS-CoV Urbani / Binding of Control serum Blood-bank to linear peptides of the protein M of SARS-CoV Urbani / Binding of Control serum LUMC to looped peptides of the protein M of SARS-CoV Urbani / Binding of Control Serum Blood-Bank to Looped peptides of the protein M of SARS-CoV Urbani: unit not given here
[2] = tested on: recombinant human anti-SARS-CoV antibody 03-018; assay type: binding; design: Binding of antibody 03-018 to linear peptides of the N protein of SARS-CoV Urbani / Binding of antibody 03-018 to looped/cyclic peptides of the N protein of SARS-CoV Urbani: unit not given here
[3] = tested on: rabbit serum obtained by immunizing a rabbit with the SARS-CoV strain Frankfurt 1; assay type: binding; design: Binding of a rabbit serum to linear peptides / Binding of a rabbit serum to looped peptides / Rabbit serum linear peptides / Rabbit serum looped peptides / Binding of a rabbit serum to linear peptides of protein N of SARS-CoV Urbani (Rabbit serum linear peptides) / Binding of a rabbit serum to looped/cyclic peptides of protein N of SARS-CoV Urbani (Rabbit serum looped peptides): unit not given here
[4] = tested on: antibodies in sera from SARS patients (sera 1a, 1b, 2, 6, 37, 62, London, SARS-yellow, SARS-green); assay type: binding, human; design: Binding of serum 6 to linear peptides of protein X1 of SARS-CoV Urbani / Binding of serum 37 to linear peptides of protein X1 of SARS-CoV Urbani / Binding of serum 6 to looped/cyclic peptide (PEPSCAN-ELISA) / Binding of serum 37 to looped/cyclic peptide (PEPSCAN-ELISA) / Binding of serum 37 to looped/cyclic peptides of protein X1 of SARS-CoV Urbani / Binding of serum 6 to linear peptides of protein X2 / Binding of serum 37 to linear peptides of protein X2 / Binding of serum 37 to looped/cyclic peptides of protein X2 of SARS-CoV Urbani / Binding of serum 6 to linear peptides of protein M of SARS-CoV Urbani / Binding of serum 37 to linear peptides of protein M of SARS-CoV Urbani / Binding of serum 6 to looped/cyclic peptides of protein M of SARS-CoV Urbani / Binding of serum 37 to looped/cyclic peptides of protein M of SARS-CoV Urbani / Binding of serum 6 to linear peptides of protein X3 of SARS-CoV Urbani / Binding of serum 37 to linear peptides of protein X3 of SARS-CoV Urbani / Binding of serum 37 to looped/cyclic peptides of protein X3 of SARS-CoV Urbani / Binding of serum 6 to linear peptides of protein X4 of SARS-CoV Urbani / Binding of serum 37 to linear peptides of protein X4 of SARS-CoV Urbani / Binding of serum 37 to looped/cyclic peptides of protein X4 of SARS-CoV Urbani / Binding of serum 6 to linear peptides of protein X5 of SARS-CoV Urbani / Binding of serum 37 to linear peptides of protein X5 of SARS-CoV Urbani / Binding of serum 37 to looped/cyclic peptides of protein X5 of SARS-CoV Urbani / Binding of serum 6 to linear peptides of protein N of SARS-CoV Urbani / Binding of serum 37 to linear peptides of protein N of SARS-CoV Urbani / Binding of serum 6 to linear peptide (PEPSCAN-ELISA) / Binding of serum 1a to looped/cyclic peptides of protein N of SARS-CoV Urbani / Binding of serum 1b to looped/cyclic peptides of protein N of SARS-CoV Urbani / Binding of serum 2 to looped/cyclic peptides of protein N of SARS-CoV Urbani / Binding of serum 6 to looped/cyclic peptides of protein N of SARS-CoV Urbani / Binding of serum 37 to looped/cyclic peptides of protein N of SARS-CoV Urbani / Binding of serum 62 to looped/cyclic peptides of protein N of SARS-CoV Urbani / Binding of serum London to looped/cyclic peptides of protein N of SARS-CoV Urbani / Binding of serum SARS-green to looped/cyclic peptides of protein N of SARS-CoV Urbani: unit not given here

Sequence | Binding of antibody 03-018 to linear peptides of the N protein of SARS-CoV Urbani [2] | Binding of antibody 03-018 to looped/cyclic peptides of the N protein of SARS-CoV Urbani [2] | Binding of a rabbit serum to linear peptides of protein N of SARS-CoV Urbani (Rabbit serum linear peptides) [3] | Binding of a rabbit serum to looped/cyclic peptides of protein N of SARS-CoV Urbani (Rabbit serum looped peptides) [3] | Recognition of the peptide by the rabbit serum [3] | Binding of serum 1a to linear peptide (PEPSCAN-ELISA) [4] | Binding of serum 1a to looped/cyclic peptides of protein N of SARS-CoV Urbani [4] | Binding of serum 1b to linear peptide (PEPSCAN-ELISA) [4] | Binding of serum 1b to looped/cyclic peptides of protein N of SARS-CoV Urbani [4] | Binding of serum 2 to linear peptide (PEPSCAN-ELISA) [4] | Binding of serum 2 to looped/cyclic peptides of protein N of SARS-CoV Urbani [4] | Binding of serum 6 to linear peptide (PEPSCAN-ELISA) [4] | Binding of serum 6 to looped/cyclic peptides of protein N of SARS-CoV Urbani [4] | Binding of serum 37 to linear peptide (PEPSCAN-ELISA) [4] | Binding of serum 37 to looped/cyclic peptides of protein N of SARS-CoV Urbani [4] | Binding of serum 62 to linear peptide (PEPSCAN-ELISA) [4] | Binding of serum 62 to looped/cyclic peptides of protein N of SARS-CoV Urbani [4] | Binding of serum London to linear peptide (PEPSCAN-ELISA) [4] | Binding of serum London to looped/cyclic peptides of protein N of SARS-CoV Urbani [4] | Binding of serum SARS-green to linear peptide (PEPSCAN-ELISA) [4] | other results
ASGGGETALALLLLD | 0.1 | 0.2 | 0.1 | 0.4 | – | – | – | – | – | – | – | – | – | – | – | – | – | – | – | – | Binding of Control Serum Blood-Bank to Looped peptides [1]: 1.3; Binding of Control serum Blood-bank to linear peptides [1]: 0.8; Binding of Control serum LUMC to linear peptides [1]: 0.9; Binding of Control serum LUMC to looped peptides [1]: 1.3
DKDPQFKDNVILLNK | 0.1 | 0.4 | 0.1 | 0.5 | – | – | – | – | – | – | – | – | – | – | – | – | – | – | – | – | –
GSSRGNSPARMASGG | 0.1 | 0.2 | – | – | recognized | 0.4 | 0.4 | 0.2 | 0.3 | 0.2 | 0.7 | 0.2 | 0.4 | 0.5 | 0.6 | 0.7 | 0.6 | 0.5 | 0.9 | 0.8 | Binding of serum SARS-green to looped/cyclic peptides of protein N of SARS-CoV Urbani [4]: 0.7; Binding of serum SARS-yellow to linear peptide (PEPSCAN-ELISA) [4]: 0.7; Binding of serum SARS-yellow to looped/cyclic peptides of protein N of SARS-CoV Urbani [4]: 0.5
GTTLPKGFYAEGSRG | 0.1 | 0.2 | 0.2 | 0.3 | – | – | – | – | – | – | – | – | – | – | – | – | – | – | – | – | Binding of Control Serum Blood-Bank to Looped peptides [1]: 0.5; Binding of Control serum Blood-bank to linear peptides [1]: 0.6; Binding of Control serum LUMC to linear peptides [1]: 0.6; Binding of Control serum LUMC to looped peptides [1]: 0.6
KLDDKDPQFKDNVIL | 0.1 | 0.2 | 0.1 | 0.2 | – | – | – | – | – | – | – | – | – | – | – | – | – | – | – | – | Control Serum Blood-Bank Looped peptides [1]: 0.7; Control serum Blood-bank linear peptides [1]: 0.8; Control serum LUMC linear peptides [1]: 0.7; Control serum LUMC looped peptides [1]: 0.8
KPRQKRTATKQYNVT | 0.1 | 0.2 | 0.3 | 0.0 | – | – | – | – | – | – | – | – | – | – | – | – | – | – | – | – | Binding of Control Serum Blood-Bank to Looped peptides [1]: 0.4; Binding of Control serum Blood-bank to linear peptides [1]: 0.8; Binding of Control serum LUMC to linear peptides [1]: 0.7; Binding of Control serum LUMC to looped peptides [1]: 0.4
NSTPGSSRGNSPARM | 0.2 | 0.3 | – | – | recognized | 0.7 | 0.8 | 0.5 | 0.7 | 0.4 | 0.6 | 0.6 | 0.4 | 1.2 | 0.6 | 1.2 | 0.6 | 1.6 | 0.5 | 1.8 | Binding of serum SARS-green to looped/cyclic peptides of protein N of SARS-CoV Urbani [4]: 0.4; Binding of serum SARS-yellow to linear peptide (PEPSCAN-ELISA) [4]: 1.5; Binding of serum SARS-yellow to looped/cyclic peptides of protein N of SARS-CoV Urbani [4]: 0.4
PGSSRGNSPARMASG | 0.1 | 0.3 | – | – | recognized | 0.3 | 0.4 | 0.2 | 0.2 | 0.3 | 0.5 | 0.2 | 0.4 | 0.6 | 0.6 | 0.6 | 0.6 | 0.5 | 0.5 | 0.5 | Binding of serum SARS-green to looped/cyclic peptides of protein N of SARS-CoV Urbani [4]: 0.5; Binding of serum SARS-yellow to linear peptide (PEPSCAN-ELISA) [4]: 0.7; Binding of serum SARS-yellow to looped/cyclic peptides of protein N of SARS-CoV Urbani [4]: 0.4
TPGSSRGNSPARMAS | 0.1 | 0.3 | – | – | recognized | 0.3 | 0.4 | 0.2 | 0.2 | 0.3 | 0.5 | 0.2 | 0.4 | 0.8 | 0.6 | 0.7 | 0.6 | 0.5 | 0.5 | 0.6 | Binding of serum SARS-green to looped/cyclic peptides of protein N of SARS-CoV Urbani [4]: 0.4; Binding of serum SARS-yellow to linear peptide (PEPSCAN-ELISA) [4]: 0.8; Binding of serum SARS-yellow to looped/cyclic peptides of protein N of SARS-CoV Urbani [4]: 0.5
TVLQLPQGTTLPKGF | 0.1 | 0.3 | 0.3 | 1.2 | – | – | – | – | – | – | – | – | – | – | – | – | – | – | – | – | –
